In patent US8748451B2, “HDAC inhibitors and therapeutic methods of using same” (The Board of Trustees of the University of Illinois, priority 2009, dated 2014):
Read-outs that look alike come from different tables or passages of the source. Each block holds one compound with its values, some of them ahead of it.

Assays:
Human HDAC1 = Human HDAC1 (Homo sapiens (Human), UniProt Q13547); test: HDAC1 inhibition assay (fluorogenic p53 peptide substrate); format: biochemical; settings: read-out: HDAC1 IC50 (μM) ± SD
Chain of Human HDAC1 (Q13547 whole entry): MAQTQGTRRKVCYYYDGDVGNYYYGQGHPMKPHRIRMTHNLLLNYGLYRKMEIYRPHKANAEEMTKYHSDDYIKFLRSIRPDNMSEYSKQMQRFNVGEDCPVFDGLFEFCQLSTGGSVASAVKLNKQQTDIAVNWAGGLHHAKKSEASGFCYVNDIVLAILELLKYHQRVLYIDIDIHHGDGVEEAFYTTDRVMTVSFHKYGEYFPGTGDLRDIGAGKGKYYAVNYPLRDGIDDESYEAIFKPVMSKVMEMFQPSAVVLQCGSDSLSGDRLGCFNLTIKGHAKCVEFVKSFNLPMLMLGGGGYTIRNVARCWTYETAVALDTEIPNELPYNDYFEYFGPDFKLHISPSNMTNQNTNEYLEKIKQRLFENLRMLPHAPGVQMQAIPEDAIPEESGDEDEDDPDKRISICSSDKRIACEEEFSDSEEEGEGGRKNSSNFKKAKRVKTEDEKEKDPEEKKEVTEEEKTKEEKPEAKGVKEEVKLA

Human HDAC6 = Human HDAC6 (Homo sapiens (Human), UniProt Q9UBN7); test: HDAC6 inhibition assay (fluorogenic p53 peptide substrate); format: biochemical; settings: for IC50: mean of two experiments (TSA: 9), 10-dose, 3-fold serial dilution from 30 μM, read-out: HDAC6 IC50 (μM) ± SD
Chain of Human HDAC6 (Q9UBN7 whole entry): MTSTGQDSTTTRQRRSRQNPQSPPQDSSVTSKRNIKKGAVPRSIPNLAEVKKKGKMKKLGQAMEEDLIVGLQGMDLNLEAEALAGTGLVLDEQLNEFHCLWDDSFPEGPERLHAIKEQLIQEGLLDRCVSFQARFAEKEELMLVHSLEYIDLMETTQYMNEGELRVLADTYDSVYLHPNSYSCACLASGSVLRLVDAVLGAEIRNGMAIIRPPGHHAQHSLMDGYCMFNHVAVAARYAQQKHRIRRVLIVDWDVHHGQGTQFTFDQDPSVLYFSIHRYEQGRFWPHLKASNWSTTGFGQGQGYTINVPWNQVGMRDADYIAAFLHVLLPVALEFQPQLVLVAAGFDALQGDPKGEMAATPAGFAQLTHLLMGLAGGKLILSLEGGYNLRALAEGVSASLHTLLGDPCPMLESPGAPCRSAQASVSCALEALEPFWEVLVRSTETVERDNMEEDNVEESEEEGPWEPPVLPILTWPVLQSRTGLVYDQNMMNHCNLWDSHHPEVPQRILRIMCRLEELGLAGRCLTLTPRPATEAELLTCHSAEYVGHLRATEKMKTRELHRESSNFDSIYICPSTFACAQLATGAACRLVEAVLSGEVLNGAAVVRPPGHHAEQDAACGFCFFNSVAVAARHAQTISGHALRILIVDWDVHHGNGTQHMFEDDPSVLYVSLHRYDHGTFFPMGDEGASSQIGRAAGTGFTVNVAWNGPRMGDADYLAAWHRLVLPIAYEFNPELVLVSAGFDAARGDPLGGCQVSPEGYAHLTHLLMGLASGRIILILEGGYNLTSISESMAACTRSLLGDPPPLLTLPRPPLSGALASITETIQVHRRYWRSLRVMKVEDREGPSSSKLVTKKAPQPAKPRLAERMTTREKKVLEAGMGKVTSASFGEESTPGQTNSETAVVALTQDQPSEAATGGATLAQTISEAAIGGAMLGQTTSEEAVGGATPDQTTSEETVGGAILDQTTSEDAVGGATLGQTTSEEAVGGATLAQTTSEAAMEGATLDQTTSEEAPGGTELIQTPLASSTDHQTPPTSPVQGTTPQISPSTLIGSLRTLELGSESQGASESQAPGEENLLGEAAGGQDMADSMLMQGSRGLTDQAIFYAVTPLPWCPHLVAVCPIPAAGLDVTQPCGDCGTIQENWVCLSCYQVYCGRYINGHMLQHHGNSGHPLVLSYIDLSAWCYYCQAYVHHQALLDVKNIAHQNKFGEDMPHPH

mice with colitis = test: Colitis in mice; format: in vivo; settings: treatment begun once colitis had developed
Text: Studies of autoimmunity also are undertaken. In this case, interruption of existing disease is especially important and HDAC6 targeting can be efficacious without any requirement for additional therapy (in contrast to a need for brief low-dose RPM in the very aggressive, fully MHC-mismatched transplant models). […] These studies are extended by assessing whether deletion of HDAC6 in Tregs (Foxp3/Cre) vs. T cells (CD4=Cre) vs. DC (CD11c-Cre) differentially affect the development and severity of colitis. Similarly, control of colitis is assessed by inducing HDAC6 deletion at varying intervals after the onset of colitis with tamoxifen-regulated Cre.

HDAC7 = HDAC7 (Homo sapiens (Human), UniProt Q8WUI4); test: HDAC7 inhibition assay
Chain of HDAC7 (Q8WUI4 whole entry): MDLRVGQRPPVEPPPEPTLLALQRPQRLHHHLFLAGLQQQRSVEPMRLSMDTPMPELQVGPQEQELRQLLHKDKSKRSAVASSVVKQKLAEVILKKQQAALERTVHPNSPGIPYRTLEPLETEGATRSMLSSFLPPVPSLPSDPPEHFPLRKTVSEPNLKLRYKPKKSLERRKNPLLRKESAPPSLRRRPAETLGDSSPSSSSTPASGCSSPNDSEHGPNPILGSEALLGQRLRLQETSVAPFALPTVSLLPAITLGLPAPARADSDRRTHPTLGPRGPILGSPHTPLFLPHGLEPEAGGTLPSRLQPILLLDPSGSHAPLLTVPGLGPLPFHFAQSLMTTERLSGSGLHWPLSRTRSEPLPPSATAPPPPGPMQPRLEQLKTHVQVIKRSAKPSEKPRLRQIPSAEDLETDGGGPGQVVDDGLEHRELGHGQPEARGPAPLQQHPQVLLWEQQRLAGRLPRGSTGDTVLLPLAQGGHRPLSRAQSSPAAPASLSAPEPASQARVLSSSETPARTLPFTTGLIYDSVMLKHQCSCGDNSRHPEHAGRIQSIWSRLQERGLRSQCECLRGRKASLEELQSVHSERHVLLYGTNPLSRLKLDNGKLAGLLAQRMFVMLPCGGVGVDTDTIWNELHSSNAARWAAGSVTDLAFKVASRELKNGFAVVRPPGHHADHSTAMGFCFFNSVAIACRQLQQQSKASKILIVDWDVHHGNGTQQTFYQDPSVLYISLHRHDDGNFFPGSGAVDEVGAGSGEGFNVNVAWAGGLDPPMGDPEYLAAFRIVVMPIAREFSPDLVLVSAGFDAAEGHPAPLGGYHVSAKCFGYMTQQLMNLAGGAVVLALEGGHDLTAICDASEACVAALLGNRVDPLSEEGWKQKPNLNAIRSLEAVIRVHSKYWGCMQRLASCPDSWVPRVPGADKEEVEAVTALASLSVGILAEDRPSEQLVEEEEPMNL

HDAC5 = HDAC5 (Homo sapiens (Human), UniProt Q9UQL6); test: biochemical; settings: mean of two experiments; read-out: HDAC5 IC50 (μM) ± SD
Chain of HDAC5 (Q9UQL6 whole entry): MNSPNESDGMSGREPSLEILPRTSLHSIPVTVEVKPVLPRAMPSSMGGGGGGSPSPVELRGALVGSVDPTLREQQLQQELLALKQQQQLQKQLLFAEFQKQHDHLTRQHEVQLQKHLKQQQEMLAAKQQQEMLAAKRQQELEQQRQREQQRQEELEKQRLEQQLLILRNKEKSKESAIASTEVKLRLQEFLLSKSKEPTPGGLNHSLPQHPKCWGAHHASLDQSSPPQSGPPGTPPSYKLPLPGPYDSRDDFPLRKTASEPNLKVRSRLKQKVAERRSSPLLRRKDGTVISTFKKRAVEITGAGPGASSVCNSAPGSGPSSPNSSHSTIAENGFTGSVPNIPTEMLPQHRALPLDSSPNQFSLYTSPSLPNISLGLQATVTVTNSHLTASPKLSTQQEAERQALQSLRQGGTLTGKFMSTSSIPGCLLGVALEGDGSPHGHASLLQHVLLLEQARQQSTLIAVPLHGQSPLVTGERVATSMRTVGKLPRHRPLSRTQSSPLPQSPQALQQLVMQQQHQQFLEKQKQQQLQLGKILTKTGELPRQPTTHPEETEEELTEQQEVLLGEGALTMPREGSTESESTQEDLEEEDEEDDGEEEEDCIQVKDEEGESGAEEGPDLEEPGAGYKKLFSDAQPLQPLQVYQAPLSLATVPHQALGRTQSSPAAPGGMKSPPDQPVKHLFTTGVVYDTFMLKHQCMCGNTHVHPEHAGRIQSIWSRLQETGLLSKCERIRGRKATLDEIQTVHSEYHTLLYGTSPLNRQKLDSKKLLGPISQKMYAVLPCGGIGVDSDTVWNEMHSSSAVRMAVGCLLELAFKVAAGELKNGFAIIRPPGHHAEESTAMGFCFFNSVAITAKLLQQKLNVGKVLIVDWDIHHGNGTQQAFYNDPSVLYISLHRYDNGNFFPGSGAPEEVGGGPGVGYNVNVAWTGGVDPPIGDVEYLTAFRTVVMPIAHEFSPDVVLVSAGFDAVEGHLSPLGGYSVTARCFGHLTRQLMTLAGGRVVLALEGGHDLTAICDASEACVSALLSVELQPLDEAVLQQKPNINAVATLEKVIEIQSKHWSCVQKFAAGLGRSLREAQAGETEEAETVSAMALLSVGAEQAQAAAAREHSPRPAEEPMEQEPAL

HDAC2 = HDAC2 (Homo sapiens (Human), UniProt Q92769); test: biochemical
Chain of HDAC2 (Q92769 whole entry, the tested form may be a part): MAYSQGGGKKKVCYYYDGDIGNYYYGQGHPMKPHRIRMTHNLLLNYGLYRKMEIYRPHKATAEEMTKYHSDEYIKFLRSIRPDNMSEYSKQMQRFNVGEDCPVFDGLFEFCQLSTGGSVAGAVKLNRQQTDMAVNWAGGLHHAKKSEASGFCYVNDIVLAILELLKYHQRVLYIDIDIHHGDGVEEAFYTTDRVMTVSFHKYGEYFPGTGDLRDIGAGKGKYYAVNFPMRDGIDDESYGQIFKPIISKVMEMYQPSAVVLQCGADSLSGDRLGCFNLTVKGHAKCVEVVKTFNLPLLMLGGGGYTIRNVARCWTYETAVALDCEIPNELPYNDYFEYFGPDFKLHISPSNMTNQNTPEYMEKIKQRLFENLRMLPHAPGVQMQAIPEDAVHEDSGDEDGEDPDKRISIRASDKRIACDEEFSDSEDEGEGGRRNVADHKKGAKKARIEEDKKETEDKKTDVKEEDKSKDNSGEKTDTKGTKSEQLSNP

Aβ-infused mice = test: Contextual fear conditioning after Aβ42 infusion; format: in vivo
Method: In this test, mice were infused with Aβ42 via cannulas implanted into dorsal hippocampus 15 minutes prior to training. […] Fear learning was assessed 24 hours later.

[1] = test system: collagen-induced arthritis model in DBA1/J mice; test: Collagen-induced arthritis model; format: in vivo; settings: 50 and 100 mg/kg IP
Text: In this test, DBA1/J mice (male, 7-8 weeks) were used, with 8 animals per group. Systemic arthritis was induced with bovine collagen type II and CFA, plus an IFA booster injection on day 21.
The results are summarized in FIG. 3, containing graphs of Average Arthritic Score vs. Days of Treatment.

primary cortical neurons = test: HCA oxidative stress neuroprotection assay (MTT viability)
murine Treg = test: Murine Treg suppression; format: cell-based
mice = test: Visible platform test; format: in vivo; settings: injected twice a day for two days
[2] = mean of two experiments (TSA: 9), 10-dose, 3-fold serial dilution from 30 μM

IC50 (Human HDAC1; [2]): > 30 µM
IC50 (Human HDAC6): > 30 µM
Compound: O=C(NO)n1c2ccccc2c2ccccc21 [Compound 13, Carbazole-9-carboxylic acid hydroxyamide]

Compound: O=C(CCCCn1c2ccccc2c2ccccc21)NO [Compound 9, 5-Carbazol-9-yl-pentanoic acid hydroxyamide]
IC50 (Human HDAC1): 12.8 ± 0.7 µM
IC50 (Human HDAC6): 2.63 ± 0.04 µM

Compound: O=C(CCCCCCn1c2ccccc2c2ccccc21)NO [Compound 10, 7-Carbazol-9-ylheptanoic acid hydroxyamide]
IC50 (Human HDAC1): 0.204 ± 0.087 µM
IC50 (Human HDAC6): 0.006 ± 0.002 µM

IC50 (Human HDAC1; [2]): > 30 µM
IC50 (Human HDAC6): 1.59 ± 0.08 µM
Compound: O=C(CCn1c2ccccc2c2ccccc21)NO [Compound 8, 3-Carbazol-9-yl-N-hydroxy-propionamide]

Compound: CN1CCc2c(n(Cc3ccc(C(=O)NO)cc3)c3ccccc23)C1 [Compound 7, N-Hydroxy-4-(2-methyl-1,2,3,4-tetrahydro-b-carbolin-9-ylmethyl)benzamide]
selectivity for HDAC6 against HDAC1 (Human HDAC6; HDAC1 IC50/HDAC6 IC50): 3700 fold

Compound: O=C(CCCCCCC(=O)Nc1ccc([C@H]2O[C@@H](CSc3nc(-c4ccccc4)c(-c4ccccc4)o3)C[C@@H](c3ccc(CO)cc3)O2)cc1)NO [Tubacin]
rescue of mice with established colitis (mice with colitis): able to rescue mice
IC50 (HDAC7): 9.7 ± 1.8 µM
IC50 (HDAC5): 3.35 ± 0.03 µM
IC50 (HDAC2): 6.27 ± 0.29 µM

Compound: CN1CCc2c(c3ccccc3n2Cc2ccc(C(=O)NO)cc2)C1 [Compound 6, N-Hydroxy-4-(2-methyl-1,2,3,4-tetrahydro-pyrido[4,3-b]indol-5-ylmethyl)benzamide]
signs of overt toxicity (food and liquid intake, weight loss, locomotion, exploratory behavior) (Aβ-infused mice; during the memory experiments): no signs of overt toxicity
freezing response (contextual fear conditioning) (Aβ-infused mice; vehicle-infused mice, 25 mg/kg ip): no effect
body weight [1]: No loss of body weight
toxicity to neurons when tested alone (primary cortical neurons; alone (no HCA), all concentrations shown): no toxicity
concentration at which dose-dependent protection against HCA-induced neuronal cell death starts (primary cortical neurons; with HCA 5 mM, 24 h): 5 µM
concentration enhancing murine Treg suppression (murine Treg): greater than 100 μM
effects on motor, sensorial, or motivational skills (mice): no effects
